Experimental data published in patent publication US12233060B2, “Inhibitors of Ataxia-Telangiectasia Mutated and Rad3-related protein kinase (ATR) for use in methods of treating cancer” (THE INSTITUTE OF CANCER RESEARCH: ROYAL CANCER HOSPITAL, priority 2016, dated 2025).

Key:
HCC1143 and HeLa cells = experiment: Surviving fraction after five days VX-970 with SMARCA4 or ARID1A siRNA; assay type: cell-based, human; settings: five days exposure
Description: FIG. 6. BAF complex deficiency causes sensitivity to ATR inhibition. A. Schematic of BAF complex composition in human cells. B. VX-970 dose response curves from HCT116 cells transfected with siRNA targeting ARID1B or SMARCA4. 48 hours after transfection cells were exposed to VX-970 for 5 days. Error bars represent SD from triplicate experiments. p<0.0001, ANOVA for siARID1B and siSMARCA4 vs. siCON. C. Western blots illustrating ARID1B and SMARCA4 silencing in experiment (B). D. VX-970 dose response curves from four OCCC cell lines, 3 SMARCA4 wildtype (blue; RMG1, KK and ES2) and 1 SMARCA4 mutant (red; TOV112D). E. Bar chart illustrating surviving fraction after five days VX-970 exposure in HCC1143 and He1a cells transfected with siRNA targeting either SMARCA4 or ARID1A *p<0.05 by Student's t-test compared to siCon. F. Western blot illustrating level of chromatin bound TOP2A in HCT116 cells transfected siRNA targeting ARID1A, ARID1B or SMARCA4. Cells were analysed 48 hours after transfection. G. A model for the proposed mechanism driving the sensitivity of ARID1A-deficient cells to ATRi. Loss of function genomic alterations to ARID1A (or ARID1B/SMARCA4) lead to dysfunction of the BAF complex. This in turn causes decreased binding of TOP2A to chromatin, reducing the efficiency of chromosomal decatenation. […]

[1] = system: SS tumour cell lines (HS-SY-II, ASKA, YAMOTO, CME1, SYO1); experiment: Five-day cell viability (CellTiter-Glo) in synovial sarcoma tumour cell lines; assay type: cell-based, human
From the text: FIG. 8. ATR genetic dependency synovial sarcoma tumour cells—part 1. A. ATR siRNA Z scores from the siRNA screens described in FIG. 7, classified according to the cancer histology of tumour cell lines. B. Dose-response survival curves illustrating sensitivity of SS tumour cell lines to the ATR small molecule inhibitor (ATRi) VX970, compared to ATRi resistant HCT116 cells. Cells were exposed to drugs for five days and cell viability estimated using CellTiter-Glo. For each SS tumour cell line, dose response ANOVA p<0.0001 vs. HCT116. C. Dose-response survival curves illustrating sensitivity of SS tumour cell lines to VX970, compared to ATRi resistant ARID1A wild type HCT116 cells (HCT116 ARID1A^+/+) and ARID1A defective HCT116 cells (HCT116 ARID1A^−/−). Cells were exposed to drugs for five days and cell viability estimated using CellTiter-Glo. For each SS tumour cell line and HCT116 ARID1A^−/−, dose response ANOVA p<0.0001 vs. HCT116 ARID1A^+/+. D. VX970 area under the curve (AUC) values in tumour cell lines. ARID1A defective cells indicated as “ARID1A^−/−”, Ewings sarcoma tumour cell lines shown as “EWS”. E. Anti-tumour response in mice bearing established synovial sarcoma PDX, SA13412, to treatment with VX970. Median tumour volumes after the initiation of VX970 treatment are shown. Error bars represent standard error of the mean (SEM). F. Kaplan-Meier survival plot of data from (E). log rank Mantel p=0.026. G. Western blot illustrating expression of synovial sarcoma fusion proteins in HCT116 cells. A SS18-SSX1 variant with the final eight residues of SSX1 deleted (Δ71-78) is shown as d71-78. H. Bar chart illustrating induction of AXIN2 mRNA after expression of synovial sarcoma fusion proteins in HCT116 cells. I-K. Dose-response survival curves illustrating that expression of synovial sarcoma fusion proteins in HCT116 cells causes ATRi sensitivity.
FIG. 9. ATR genetic dependency synovial sarcoma tumour cells—part 2. […] Cells were transfected with ATR siRNAs and cell viability estimated five days later by the use of Cell Titre Glo. Bar chart showing surviving fractions are shown left and middle. Western blot illustrating ATR protein silencing is shown right. Z scores from the siRNA screens described in FIG. 7, classified according to the cancer histology of tumour cell lines. B. Dose-response survival curves illustrating sensitivity of SS tumour cell lines to the ATR small molecule inhibitor (ATRi) VX970, compared to ATRi resistant HCT116 cells and non-tumour cells (HFF1, MCF10A). […]
Having confirmed the sensitivity of SS tumour cell lines to siRNA in validation experiments (FIG. 9A), we assessed the sensitivity of the five SS tumour cell lines to the clinical ATR inhibitor (ATRi), VX970 (Vertex Pharmaceuticals). […]

CNCc1ccc(-c2cc(-c3nc(-c4ccc(S(=O)(=O)C(C)C)cc4)cnc3N)on2)cc1 [VX-970, 5-[4-(Isopropylsulfonyl)phenyl]-3-(3-{4-[(methylamino)methyl]phenyl}-1,2-oxazol-5-yl)-2-pyrazinamine]
VX-970 sensitivity caused by SMARCA4 silencing vs ARID1A siRNA (HCC1143 and HeLa cells): comparable to that caused by ARID1A siRNA
sensitivity of SS tumour cell lines vs Ewing's sarcoma and ARID1A defective tumour cells ([1]; AUC and SF50 comparison): VX970 sensitivity comparable
IC50 ([1]; Homo sapiens, 120 h, each of five SS tumour cell lines, five days exposure, read-out: SF50 (concentration required to cause 50% reduction in cell survival)): ~100 nM
sensitivity of SS tumour cell lines vs ARID1A defective HCT116 cells ([1]; five days): as sensitive to VX970 as HCT116 cells
sensitivity of SS tumour cell lines vs ATRi resistant HCT116 cells ([1]; five days, ANOVA p<0.0001): profoundly sensitive to VX970
